Data taken from patent publication US12377058B1, “Method for inhibiting proliferation of cancer cells” (IMAM MOHAMMAD IBN SAUD ISLAMIC UNIVERSITY, priority 2024, dated 2025).
Values after ≈ are worked out from the molar mass of the structure shown.

Columns and labels:
Format in all cases: cell-based
[1] = test system: FaDu cancer stem cells; assay: cytotoxic IC50 evaluation against FaDu cells; conditions: Homo sapiens, read from FIG. 3
Text: (§1) Referring to FIG. 3, cytotoxic inhibitory concentration of 50 (IC50) evaluation of YS3 against various cancer cells is illustrated.

[2] = test system: A549 lung cancer stem cells; assay: cytotoxic IC50 evaluation against A549 cells
Text: as §1

[3] = test system: MDA-MB-468 cancer stem cells; assay: cytotoxic IC50 evaluation against MDA-MB-468 cells; conditions: Homo sapiens, read from FIG. 3
Text: as §1

[4] = test system: HELA cancer stem cells; assay: cytotoxic IC50 evaluation against HeLa cells
Text: as §1

[5] = test system: PC3 cancer stem cells; assay: cytotoxic IC50 evaluation against PC3 cells
Text: as §1

## CCCCCOc1ccc(Oc2ccc(C=O)cc2)cc1 [YS3, 4-(4-(pentoxy)phenoxy)benzaldehyde]
[1]
  IC50: ~4 µg/mL (≈ 14.1 µM)
[2]; A549 cell line
  performance compared to doxorubicin (DOX): comparable to DOX
[2]; Homo sapiens, A549 lung cancer stem cells, read from FIG. 3
  IC50: ~5 µg/mL (≈ 17.6 µM)
[3]
  IC50: ~4.5 µg/mL (≈ 15.8 µM)
[4]; HeLa cell line
  performance compared to doxorubicin (DOX): comparable to DOX
[4]; Homo sapiens, HELA cancer stem cells, read from FIG. 3
  IC50: ~5 µg/mL (≈ 17.6 µM)
[5]; Homo sapiens, PC-3, PC3 cancer stem cells, read from FIG. 3
  IC50: ~4 µg/mL (≈ 14.1 µM)
[5]; PC3 cell line
  performance compared to doxorubicin (DOX): comparable to DOX
